Data published in US20060014740A1 (priority 2003, published 2006).
Where two headings read alike, the source gives them in different places.

What was measured:
Assay type in all cases: cell-based
[1] = system: RH7777 rat hepatoma cells; assay: SRB cytotoxicity assay, RH7777 control cell line; conditions: 96 h, read-out: IC50 RH7777
How it was run: (§1)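 Read-out is protein-bound sulforhodamine B absorbance at 540 nm, reflecting cell number after 96 h of drug treatment. Compounds, taken from DMSO stocks and diluted in complete medium, spanned 0 to 100 μM.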

[2] = system: DU-145 human prostate cancer cells; assay: SRB cytotoxicity assay, DU-145; conditions: 96 h
How it was run: as §1

[3] = system: PC-3 human prostate cancer cells; assay: SRB cytotoxicity assay, PC-3; conditions: 96 h, read-out: IC50 PC-3
How it was run: as §1

[4] = system: LNCaP human prostate cancer cells; assay: SRB cytotoxicity assay, LNCaP; conditions: 96 h; for IC50: read-out: IC50 LNCaP
How it was run: as §1

[5] = system: PPC-1 human prostate cancer cells; assay: SRB cytotoxicity assay, PPC-1; conditions: 96 h, read-out: IC50 PPC-1
How it was run: as §1

[6] = system: TSU-Pr1 human prostate cancer cells; assay: SRB cytotoxicity assay, TSU-Pr1; conditions: 96 h
How it was run: as §1

[7] = system: human breast cancer cell line (MCF-7); assay: SRB cytotoxicity assay, MCF-7; conditions: Homo sapiens, MCF7; Table 8; breast cancer cell line; read-out: IC50 MCF-7
How it was run: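 Cells plated at 1000–5000 per well by growth rate and exposed to compound (0 to 100 μM) for 96 h, three to five replicates. Cell number read by sulforhodamine B: TCA fixation, 0.4% SRB staining, absorbance at 540 nm.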

[8] = system: five human prostate cancer cell lines (DU-145, PC-3, LNCaP, PPC-1, TSU-Pr1); assay: SRB cytotoxicity assay, statements over several cell lines
Method: (§2) For in vitro cytotoxicity screening, 1000 to 5000 cells were plated into each well of 96-well plates depending on growth rate, and exposed to different concentrations of a test compound for 96 h in three to five replicates. All the compounds were dissolved in dimethyl sulfoxide at 5 to 20 mM, and diluted to desired concentrations in complete culture medium. Cell numbers at the end of the drug treatment were measured by the SRB assay (Gududuru et al., “Synthesis and Biological Evaluation of Novel Cytotoxic Phospholipids for Prostate Cancer,” Bioorg. Med. Chem. Lett. 14:4919-4923 (2004); Rubinstein et at., “Comparison of in vitro Anticancer-Drug-Screening Data Generated with a Tetrazolium Assay Versus a Protein Assay Against a Diverse Panel of Human Tumor Cell Lines,” J. Naatl, Cancer Inst. 82:1113-1118 (1990), each of which is hereby incorporated by reference in its entirety). Briefly, the cells were fixed with 10% of trichloroacetic acid, stained with 0.4% SRB, and the absorbances at 540 nm was measured using a plate reader (DYNEX Technologies, Chantilly, Va.).
The antiproliferative activity of all the synthesized compounds was evaluated against five human prostate cancer cell lines and in RH7777 cells (negative control) using the sulforhodamine B (SRB) assay (see description in Example 5 above). […]

[9] = system: CHO cells (CHO-1, CHO-K1); assay: SRB cytotoxicity assay, CHO; conditions: Table 9; negative control cell line; 96 h
Method: as §2
In vitro cytotoxicity assay was performed by the same sulforhodamine B (SRB) assay (described above). The compounds shown in Table 8 below where tested for activity against the breast cancer and ovarian cancer cell lines.
(§3) Cells were exposed to a wide range of concentrations (0 to 100 μM) of the particular compound for 96 h in 96 well plates. Cells were fixed with 10% trichloroacetic acid, washed five times with water. The plates were air dried overnight and fixed cells were stained with SRB solution. The cellular protein-bound SRB was measured at 540 nm using a plate reader. Cell numbers at the end of the treatment were measured.
as §3, with “96-well” for “96 well”, “calculated as a percentage of untreated control.” for “measured.”

[10] = Table 9, negative control cell line

Row | SMILES | IC50 ([1]; Rattus norvegicus, RH7777, Table 4, control cell line) | IC50 ([2]; Homo sapiens, DU-145, read-out: IC50 DU-145, Table 4) | IC50 ([3]; Homo sapiens, Table 4) | IC50 ([4]; Homo sapiens, LNCaP, Table 4) | IC50 ([5]; Homo sapiens, PPC-1, Table 4) | IC50 ([6]; Homo sapiens, TSU-Pr1, Table 4, read-out: IC50 TSU-Pr1) | IC50 [7] | IC50 ([8]; both prostate and RH7777 cells, read-out: No activity below (concentration)) | IC50 [1, 10] | IC50 ([2]; read-out: IC50 DU-145, Table 9) | IC50 ([3]; Table 9) | IC50 ([4]; Table 9) | IC50 ([5]; Table 9) | IC50 ([6]; Table 9, read-out: IC50 TSU) | IC50 [9] | IC50 LNCaP ([4]; Table 9) | IC50 TSU ([6]; Table 9) | Activity against DU-145, PC-3, and LNCaP prostate cancer cell lines [8]
1 | CCCCCCCCCCCCCCCCCCNC(=O)c1csc(-c2ccccc2)n1 [Compound 34, 2-phenylthiazole-4-carboxylic acid octadecylamide] | > 20 µM | > 20 µM | > 20 µM | > 20 µM | > 20 µM | > 20 µM | > 20 µM | > 20 µM |  |  |  |  |  |  |  |  |  | 
2 | CCCCCCCCC=CCCCCCCCCNC(=O)C(N)CO (stereo not shown) [compound 309] |  |  |  |  |  |  |  |  | 6.8 µM | 6.9 µM | 5.9 µM | 6.6 µM | 5.1 µM | 5.5 µM | 5.2 µM |  |  | 
3 | CCCCCCCCCCCCCCCCCCNC[C@@H](N)CO [compound 317] |  |  |  |  |  |  |  |  | 2.9 µM | 4.1 µM | 2.6 µM | 5.1 µM | 1.9 µM | 2.2 µM | 2.2 µM |  |  | 
4 | CCCCCCCCC=CCCCCCCCC(=O)NCCO [compound 319] |  |  |  |  |  |  |  |  | > 20 µM |  |  |  | > 20 µM |  | > 20 µM | Not Active | Not | did not show any activity
5 | CCCCCCCCC=CCCCCCCCC(=O)NCCOP(=O)(O)O [compound 320] |  |  |  |  |  |  |  |  | > 50 µM | > 50 µM | > 50 µM |  |  | > 50 µM | > 50 µM | Not Active |  | 
